Read-outs that look alike come from different tables or passages of the source.
Experiments:
K562 = assay: In vitro cytotoxic activity (CellTiterGlo), K562 (CML); assay type: cell-based; details: Homo sapiens, 48-hours, read-out: K562 LD50
Experimental: (§1) Non-metabolized targeted toxicity, or general toxicity, of compounds was assessed by treating a panel of selected cell lines in culture with a dilution series of test compounds and the lethal dose that will kill half of the cells (i.e., the LD50) was determined. Compounds herein were assayed against a panel of cytokine-independent Philadelphia chromosome (BCR-ABL1 translocation) positive (Ph+) leukemia and lymphoma cell lines along with several control cell lines that were ABL1-independent. The panel included murine cell lines BaF3-wildtype (wt), BaF3-mutants (BaF3-wt cells engineered to be reliant on various kinase domain mutations with the BCR-ABL1 fusion protein), and various ALL and CML human cell lines, including SD-1, TOM-1, NALM-21, K562, Jeko-1, BV173, and KCL-22.
(§2) To test the cytotoxic activity of compounds herein, 1.6E4 cells were plated in 96-well plates at a final volume of 135 μL per well. Compounds were then added to the wells. In general, final concentrations of compounds started at a maximum concentration of […] and were diluted by half-log concentrations down to a final concentration of 0.316 nM. However, different cell lines required varying drug concentration ranges for optimal LD50 calculations. To create half-log dilutions, 40 mM DMSO solutions of compounds were diluted in half-log iterations to generate 400× starting concentration of compounds in DMSO. The 400× compound solutions were then diluted by 40-fold by adding 5 μL of 400× DMSO stock to 195 μL cell culture media, generating 10× drug concentrations in cell culture media. Then 15 μL of the 10× drug solutions were added to the 135 μL volume of cell suspension, resulting in 1× final drug concentrations with 0.25% DMSO in all wells. 48-hours after adding compounds, cells were measured for relative viability to generate cytotoxicity curves associated with the varying concentrations of compounds. […] LD50 values were measured by normalizing luminescence intensity to the lowest drug concentration. GraphPad Prism was used to plot and calculate LD50 values from the cytotoxic kill curves. Curves were fit to a non-linear regression model, with compound concentration vs. response and variable slope (four parameters).

NALM-21 = assay: In vitro cytotoxic activity (CellTiterGlo), NALM-21 (ALL); assay type: cell-based; details: Homo sapiens; 48-hours; read-out: NALM-21 LD50
Experimental: as §1, §2

ABL1(wt) = ABL1(wt) (Homo sapiens, UniProt P00519); assay: Z′-LYTE assay (labeled peptide cleavage), ABL1(wt); assay type: biochemical
Excerpt: (§3) This Example describes a cell-free assay utilized to identify candidate compounds that bind to and inhibit protein kinase (PK) and PK variants. One assay is referred to as a “Z′-LYTE assay” and is an example of a labeled peptide cleavage assay. The fluorescence-based assay relies on the differential sensitivity of a small, dual-end-labelled peptide to cleavage by a protease, dependent on the phosphorylation state of the peptide (FIG. 1). The peptide substrate is end-labelled with two distinct fluorophores that comprise a Fluorescence Resonance Energy Transfer (FRET) pair.
(§4) In the absence of inhibitor, the kinase transfers the gamma-phosphate from ATP to the single, unique tyrosine, serine or threonine in the synthetic FRET peptide. The reaction conditions are titrated such that 10-40% of the peptide substrate is phosphorylated. In a second reaction, a site-specific protease that only recognizes and cleaves the non-phosphorylated FRET peptide is added. Cleavage interferes with FRET between the donor (i.e., coumarin) and the acceptor (i.e., fluorescein) fluorophores on the FRET-peptide substrate, unlike the phosphorylated, uncleaved peptide.
(§5) The Test Compounds are screened in 1% DMSO (final) in the well.
(§6) All Peptide/Kinase Mixtures are diluted to a 2× working concentration in the appropriate Kinase Buffer. The 2×ABL1 polypeptide/Tyr 02 substrate peptide mixture is prepared in 50 mM HEPES pH 7.5, 0.01% BRIJ-35, 10 mM MgCl2, 1 mM EGTA. The final 10 μL Kinase Reaction contains 0.3-1.2 ng ABL1 (or 1.36-6 ng ABL1(T315I)) and 2 μM Tyr 02 in 50 mM HEPES, pH 7.5, 0.01% BRIJ-35, 10 mM MgCl2, 1 mM EGTA. After the 1-hour Kinase Reaction incubation, 5 μL of a 1:128 dilution of Development Reagent A is added. The ABL1(wt) polypeptide utilized for the assay described in this Example was the “isoahABL1(wt)” polypeptide described herein (SEQ ID NO:4), which is referred to as “ABL1” in Table 1 and “ABL1(wt)” or “WT” in Table 3 of this Example. The ABL1 variant polypeptides utilized contained the same polypeptide as the “isoahABL1(wt)” polypeptide except that each contained one corresponding amino acid substitution chosen from E255K, F317I, F317L, G250E, T315I or Y253F. […]
(§7) All ATP Solutions are diluted to a 4× working concentration in Kinase Buffer (50 mM HEPES, pH 7.5, 0.01% BRIJ-35, 10 mM MgCl2, 1 mM EGTA). The ATP Km apparent (Km app) is previously determined using a Z′-LYTE assay.
(§8) Bar-coded Corning, low volume NBS, black 384-well plate (Corning Cat. #4514) • 1. […] Read on fluorescence plate reader and analyze the data
A known inhibitor control standard curve, 10-point titration, is run for each individual kinase on the same plate as the kinase to ensure the kinase is inhibited within an expected IC50 range previously determined. […]

ABL1 T315I = target: T1, ABL1 T315I (Homo sapiens, UniProt P00519, T315I); assay: Z′-LYTE assay, ABL1 T315I; assay type: biochemical
T1 construct: The ABL1 variant polypeptides utilized contained the same polypeptide as the “isoahABL1(wt)” polypeptide except that each contained one corresponding amino acid substitution
Excerpt: as §3, §4, §5, §6, §7, §8

[1] = non-GLP multi-dose toxicity study (dose escalation, daily IP injection); assay type: in vivo, mouse (6-week-old Balb/c females); details: mice; for tolerability: daily IP
Experimental: An initial non-GLP multi-dose toxicity study of Cmpd11 and Cmpd66 was performed, which included a comparison to COM1 and COM3 clinical compounds. […] Body weights were recorded 2× weekly for healthy mice followed by weekly in the recovery phase. Blood draws were taken, retro-orbitally, every other week (for a total of three blood draws per group) to determine the plasma levels of compounds throughout the duration of the study (unless mice were euthanized prior to completion of the 28-day dosing period). […] Any animals showing more than 9% weight loss were weighed every day and animals were euthanized after a weight loss of 15% or more or evidence of high distress (e.g., listless, hunched posture, high grimace score). Also, plasma samples were drawn at euthanasia. Control groups included vehicle only and no manipulation.
A summary of the study is illustrated in FIG. 14. There are six groups with 90 mice total and following is an overview of groups for the study.
The following are criteria for dose escalation and staggering of group starting points. Animals in each group are monitored after the initial dose for 3-4 days, and if there is no observed dose-limiting toxicity (DLT), then a separate cohort of naïve animals are administered the next higher dose level. Note that each cohort of animals receives the same drug and drug dose for the duration of the 28-day dosing period unless euthanasia is required. Animals in the second, dose-escalated group, are then monitored for 3-4 days, and if there is no observed DLT, animals from a fresh cohort are administered the next higher dose level, while continuing with the former cohorts up to 5 dose levels total. Animals in each cohort then are monitored after the third dose for 7 days, and if there is no observed DLT, then animals are administered the next higher doses. If DLT is observed during a monitoring period for any dose level, a subsequent dose is reduced by a level that is intermediate between the highest tolerated level tested and the minimum toxic level tested.

Row | Compound | IC50 (K562) [nM] | IC50 (NALM-21) [nM] | also measured
1 | Cc1ccc(Nc2ncc3cccc(-c4ccc(F)cc4OC(C)C)c3n2)cc1NC(=O)c1ccc(C(=O)N2CCN(C)CC2)cc1 [Cmpd44, N-(5-((8-(4-fluoro-2-isopropoxyphenyl)quinazolin-2-yl)amino)-2-methylphenyl)-4-(4-methylpiperazine-1-carbonyl)benzamide] | 300 | 281 | 
2 | CNC(=O)c1ccc(C(=O)Nc2cc(Nc3ncc4cccc(-c5ccc(F)cc5OC(C)C)c4n3)ccc2C)cc1 [Cmpd10] |  |  | IC50 (ABL1(wt); class by IC50 values in Table 5, read-out: inhibitor class of ABL1(wt) according to IC50): < 20 nM; IC50 (ABL1(wt); test compounds, Z′-LYTE, read-out: IC50 values for test compounds, ABL1(wt)): 11.2 nM; IC50 (ABL1 T315I; class by IC50 values in Table 5, read-out: inhibitor class of ABL(T315I) according to IC50): < 20 nM; IC50 (ABL1 T315I; test compounds, Z′-LYTE, read-out: IC50 values for test compounds, ABL1(T315I)): 3.86 nM
3 | Cc1ccc(C(=O)Nc2ccc(CN3CCN(C)CC3)c(C(F)(F)F)c2)cc1C#Cc1cnc2cccnn12 [ponatinib] | 3250 | 3600 | 
4 | Cc1ccc(Nc2ncc3cccc(-c4ccc(F)cc4OC(C)C)c3n2)cc1NC(=O)CN1CCN(C)CC1 [Cmpd58, N-(5-((8-(4-fluoro-2-isopropoxyphenyl)quinazolin-2-yl)amino)-2-methylphenyl)-2-(4-methylpiperazin-1-yl)acetamide] | 124 | 134 | 
5 | Cc1ccc(Nc2ncc3cccc(-c4ccc(F)cc4OC(C)C)c3n2)cc1NC(=O)C1CCN(C)CC1 [Cmpd66, N-(5-((8-(4-fluoro-2-isopropoxyphenyl)quinazolin-2-yl)amino)-2-methylphenyl)-1-methylpiperidine-4-carboxamide] | 141 | 133 | tolerability relative to COM1 ([1]; at doses required to reach the in vitro K562-Luc EC50 plasma levels in vivo, early results): more tolerable than COM1; tolerability ([1]; 1.5 mg/kg, through day 24): well tolerated; tolerability ([1]; 4.5 mg/kg, at day 21): well tolerated; tolerability ([1]; maximum dose of 18 mg/kg, at day 14): well tolerated
